Measurements published in article PMC9227305, “Photoinduced Synthesis of Methylated Marine Cyclopeptide Galaxamide Analogs with Isoindolinone as Anticancer Agents” (Marine Drugs, 2022).
Values joined by “and” are separate entries in the source; they are usually repeats but may differ in a detail not shown here. Equal entries are not always repeated. Where two headings read alike, the source gives them in different places. *1 amine or outer side, *2 acyl side, *3 side chain or, on linkers, in order; H or OH if unused. Where a SMILES comes first, the peptide text is derived from it. [ ]: non-standard residue; d: D form. X1 = O=C1c2ccccc2[C@@](O)(CN(Cc2ccccc2)[*:1])N1CC(=O)[*:2]; X2 = O=C1c2ccccc2[C@](O)(CN(Cc2ccccc2)[*:1])N1CC(=O)[*:2]; NMeL = CN[C@@H](CC(C)C)C(=O)O; dNMeL = CN[C@H](CC(C)C)C(=O)O

How the values were obtained:
[1] = other bond; 21-membered ring; hv (450 W Hg lamp, Pyrex), SET photocyclization
HepG-2 cells = assay: cells
Text: (§1) The antitumor activity of the prepared cyclic peptides against human hepatocellular carcinoma cells (HepG-2), human cervical cancer cell lines (HeLa) and human breast cancer cells (MDA-MB-231) was examined by MMT assay, and the mouse fibroblast L929 cells were used as the model cells to evaluate the toxicity of cyclopeptides to normal cell lines. Due to the absence of an authentic standard, taxol was chosen as a control because it is a widely used chemotherapeutic drug for the treatment of various cancers, including liver cancer.
(§2) Samples were dissolved in DMSO and diluted into different concentrations ([…], 18.75, 25, 37.5, 50, 75, 100 and 250 μM) and stored at 4 °C. Cells in the logarithmic growth phase were digested with trypsin and then seeded in 96-well plates at a density of 2 × 10^4 cells/well in 100 μL of culture medium. The cells were treated with different concentrations of the tested compound, and a blank control group without the drug was also set up. Six wells were repeated for each dose. After 48 h of co-incubation, MTT solution (100 μL, 0.5 mg/mL) was added, followed by incubation for another 4 h. After discarding the supernatant, 100 μL of DMSO was added per well, and the absorbance (OD) values were measured at 490 nm using an enzyme marker. Cell viability was calculated by the formula: Cell viability (%) = As/Ab × 100% (where As is the absorbance value of the experimental group and Ab is the absorbance value of the blank group). The obtained data were processed using SPSS19 software to obtain IC50 values.

L929 cells = assay: cells
Text: as §1, §2

MDA-MB-231 cells = assay type: cell-based, human; details: 48 h
Text: as §1, §2

[2] = tested on: renal carcinoma GRC-1 cell lines; set-up: method as in PMID 18816120; details: cited from earlier work
[3] = tested on: human hepatocellular carcinoma HepG-2 cell lines; set-up: method as in PMID 18816120; details: cited from earlier work

| Compound | IC50 (HepG-2 cells; 48 h) | IC50 (MDA-MB-231 cells) | ring closure, isolated yield [1] | IC50 (L929 cells; 48 h) | other results |
| --- | --- | --- | --- | --- | --- |
| 3-Hydroxy-isoindolinone-cyclo-Gly-Leu-Leu-Leu-N-Me-Leu-Leu |  |  | 24% and 28% |  |  |
| 3-Hydroxy-isoindolinone-cyclo-Gly-Leu-N-Me-Leu-Leu-Leu-Leu |  |  | 25% and 23% |  |  |
| CC(C)C[C@@H]1C(=O)N[C@H](CC(C)C)C(=O)N(C)[C@H](CC(C)C)C(=O)N[C@H](CC(C)C)C(=O)N(Cc2ccccc2)C[C@@]2(O)c3ccccc3C(=O)N2CC(=O)N[C@H](CC(C)C)C(=O)N1C [Compound 1, 3-Hydroxy-isoindolinone-cyclo-(Gly-Leu-N-Me-Leu-Leu-N-Me-Leu-Leu)] (cyclo([dNMeL][dL][dNMeL][dL][X2][dL])) | 38.4 ± 2.2 µM | 59.3 ± 2.3 µM |  | > 400 µM |  |
| CC(=O)O[C@H]1C(=O)[C@@]2(C)[C@H]([C@H](OC(=O)c3ccccc3)[C@]3(O)C[C@H](OC(=O)[C@H](O)[C@@H](NC(=O)c4ccccc4)c4ccccc4)C(C)=C1C3(C)C)[C@]1(OC(C)=O)CO[C@@H]1C[C@@H]2O [Taxol, paclitaxel, reference compound] |  |  |  |  | IC50 (HepG-2 cells; Homo sapiens, HepG2, 48 h, read-out: IC50 HepG-2): 40.9 ± 5.2 µM; IC50 (L929 cells; Mus musculus, L929, 48 h, read-out: IC50 L929): 141 ± 9.3 µM |
| 3-Hydroxy-isoindolinone-cyclo-(Gly-Leu-N-Me-Leu-Leu-N-Me-Leu-Leu) |  |  | 51% |  |  |
| 3-Hydroxy-isoindolinone-cyclo-Gly-Leu-N-Me-Leu-Leu-N-Me-Leu-Leu |  |  | 48% and 43% and 45% |  |  |
| cyclo-(L-Leu-L-N-Me-Leu-L-Leu-L-Leu-L-N-Me-Leu-L-Leu) [galaxamide] |  |  |  |  | in vitro antitumor activity [2]: strong; in vitro antitumor activity [3]: strong |

More lines, main results first:

| IC50 (HepG-2 cells; 48 h) | IC50 (MDA-MB-231 cells) | Compound | ring closure, isolated yield [1] | IC50 (L929 cells; 48 h) | other results |
| --- | --- | --- | --- | --- | --- |
| 28.2 ± 6.2 µM | 60.8 ± 8.2 µM | CC(C)C[C@@H]1C(=O)N[C@H](CC(C)C)C(=O)N[C@H](CC(C)C)C(=O)N[C@H](CC(C)C)C(=O)N(Cc2ccccc2)C[C@]2(O)c3ccccc3C(=O)N2CC(=O)N[C@H](CC(C)C)C(=O)N1C [Compound 5, 3-Hydroxy-isoindolinone-cyclo-Gly-Leu-Leu-Leu-N-Me-Leu-Leu] (cyclo([dL][dL][X1][dL][dNMeL][dL])) |  | 153 ± 10.7 µM |  |
| 90.9 ± 7.69 µM | 73.2 ± 2.8 µM | CC(C)C[C@@H]1NC(=O)[C@@H](CC(C)C)N(C)C(=O)[C@H](CC(C)C)NC(=O)[C@@H](CC(C)C)N(C)C(=O)[C@H](CC(C)C)NC(=O)CN2C(=O)c3ccccc3[C@]2(O)CN(Cc2ccccc2)C1=O [Compound 3, 3-Hydroxy-isoindolinone-cyclo-Gly-Leu-N-Me-Leu-Leu-N-Me-Leu-Leu] (cyclo([dNMeL]L[dNMeL]L[X2]L)) |  | > 400 µM |  |
| 72.1 ± 5.8 µM | 67.6 ± 3.3 µM | CC(C)C[C@H]1NC(=O)[C@H](CC(C)C)N(C)C(=O)[C@@H](CC(C)C)NC(=O)[C@H](CC(C)C)N(C)C(=O)[C@@H](CC(C)C)NC(=O)CN2C(=O)c3ccccc3[C@]2(O)CN(Cc2ccccc2)C1=O [Compound 2, 3-Hydroxy-isoindolinone-cyclo-Gly-Leu-N-Me-Leu-Leu-N-Me-Leu-Leu] (cyclo([NMeL][dL][NMeL][dL][X2][dL])) |  | 364 ± 15.6 µM |  |
| 30.4 ± 1.6 µM | 112 ± 9 µM | CC(C)C[C@@H]1NC(=O)[C@H](CC(C)C)NC(=O)[C@H](CC(C)C)N(C)C(=O)[C@H](CC(C)C)NC(=O)CN2C(=O)c3ccccc3[C@@]2(O)CN(Cc2ccccc2)C(=O)[C@H](CC(C)C)NC1=O [Compound 7, 3-Hydroxy-isoindolinone-cyclo-Gly-Leu-Leu-Leu-N-Me-Leu-Leu] (cyclo(LL[X1]L[NMeL]L)) |  | > 400 µM |  |
| 81 ± 4.29 µM | 95.3 ± 8.6 µM | CC(C)C[C@@H]1NC(=O)[C@H](CC(C)C)N(C)C(=O)[C@H](CC(C)C)NC(=O)[C@H](CC(C)C)N(C)C(=O)[C@H](CC(C)C)NC(=O)CN2C(=O)c3ccccc3[C@@]2(O)CN(Cc2ccccc2)C1=O [Compound 4, 3-Hydroxy-isoindolinone-cyclo-Gly-Leu-N-Me-Leu-Leu-N-Me-Leu-Leu] (cyclo([NMeL]L[NMeL]L[X1]L)) |  | 310 ± 20.1 µM |  |
| 36.1 ± 2.2 µM | 67.6 ± 2.3 µM | CC(C)C[C@@H]1C(=O)N[C@H](CC(C)C)C(=O)N[C@H](CC(C)C)C(=O)N[C@H](CC(C)C)C(=O)N(Cc2ccccc2)C[C@]2(O)c3ccccc3C(=O)N2CC(=O)N[C@H](CC(C)C)C(=O)N1C [Compound 6, 3-Hydroxy-isoindolinone-cyclo-Gly-Leu-N-Me-Leu-Leu-Leu-Leu] (cyclo([dL][dL][X1][dL][dNMeL][dL])) |  | 120 ± 5.3 µM |  |
